Data on 111 compounds can be found in a melting point compilation (Tetko et al.).

On to `O=[N+]([O-])c1cc([N+](=O)[O-])c(Nc2ccc3c(c2)OCCOCCOCCOCCO3)c(C(F)(F)F)c1`, for which the melting point (usually the temperature of the solid-liquid transition) is 171 °C.

Compound `OCc1cc(Cl)nc(Cl)c1` displayed a melting point of 128 to 130 °C.

The compound `COC(=O)c1ccc(N)c(C)c1` had a melting point of 116 to 117 °C.

Regarding `CCc1cc(C(=O)c2ccc(OC)cc2)c(N)s1`, the melting point lay in the range of 100 to 102 °C.

The compound `O=C(C=Cc1ccc(OC(=O)c2ccco2)cc1)c1ccccc1` came in with a melting point of 115 °C.

Turning to `CCOC(=O)Cc1cc(CC(=O)OCC)c(NC(=O)OCC)cc1NC(=O)OCC`, the melting point came to 140 °C.

`O=c1[nH]c2ccccc2nc(C(F)(F)F)c1=NNc1cc(-c2ccccc2)n[nH]1` had a melting point of 159 °C.

`O=C(O)Cc1ccc(F)c(F)c1`: the melting point was 49 °C.

With `NC(=O)CCSCCC(N)=O`, the melting point is 183 to 186 °C.

For the compound `O=C(O)C=Cc1ccc(F)cc1`, the melting point was in the range of 207 to 210 °C.

In turn, `COc1cccc(O)c1C(C)=O` had a melting point of 58 to 60 °C.

Consider `O=C(O)c1cn(C2CCCCC2)c2ccccc2c1=O`, for which the melting point lay in the range of 237 to 238 °C.

Turning to `CCCCCCCCCCS(=O)(=O)Cl`, the melting point was determined as 34 °C.

In turn, `Cc1ccc(S(=O)(=O)OC2CCC3(C)C(CCC4C5CC(=O)CC5(C)CCC43)C2)cc1` (stereo unspecified) displayed a melting point of 165 to 166 °C.

In turn, `O=C(Oc1cccc(N=[N+]([O-])c2cccc(OC(=O)c3ccccc3)c2)c1)c1ccccc1` registered a melting point of 175 °C.

`Brc1cc2c(cc1Br)Oc1cc(Br)c(Br)cc1O2`: the melting point was determined as 334 °C.

`OCC1OC(OCC2OC(O)(CO)C(O)C2O)C(O)C(O)C1O` (stereo unspecified) yielded a melting point of 125 to 128 °C.

As to `CCOC(=O)C(Cl)=NNc1ccccc1`, the melting point lay within 77 to 80 °C.

Compound `COc1ccc2c(c1)C(=O)C2` gave a melting point of 55 °C.

For `N#CCc1ccc2c(c1)OCO2`, the melting point fell in the range of 43 to 45 °C.

The compound `Clc1ccc2c(c1)C(N1CCNCC1)=Nc1ccccc1O2` returned a melting point of 176 °C.

`Cn1nc(C(F)(F)F)c(C(=O)O)c1Cl`: the melting point fell in the range of 201 to 202 °C.

Take `Cc1cc(C(=O)O)ccc1F`: the melting point came to 167 °C.

`CC(C)(C)OC(=O)NCc1ccc(Br)s1` yielded a melting point of 51 to 54 °C.

Turning to `NS(=O)(=O)c1ccc(S(=O)(=O)CCCO)c(F)c1`, the melting point amounted to 130 °C.

Compound `CCCCNCC` yielded a melting point of -78 °C.

Turning to `CC1=Nc2ccccc2N=C(C)C1`, the melting point was determined as 193 °C.

On to `CC(C)COC(=O)c1ccccc1O`, for which the melting point was 5.9 °C.

`O=C(CBr)c1ccc(C(=O)CBr)cc1` came in with a melting point of 173 °C.

On to `Cc1c(-c2ccccc2)sc2ncnc(O)c12`, for which the melting point lay in the range of 247 to 249 °C.

In turn, `CC(C)(C)OC(=O)C(C)(C)ON=C(C(=O)O)c1csc(N)n1` displayed a melting point of 180 °C.

For the compound `OCc1cccc(-c2ccsc2)c1`, the melting point was in the range of 88 to 90 °C.

Turning to `O=C(O)c1cc(F)c(F)c(F)c1`, the melting point was 98 °C.

As to `Cc1cc(Cl)cc2c(O)c(C(=O)O)cnc12`, the melting point was 303 to 308 °C.

In turn, `Nc1cccc(N)c1N` returned a melting point of 103 °C.

In turn, `Brc1ccc(-c2ccc(Br)cc2)cc1` gave a melting point of 167 °C.

`Cc1cccc(O)n1` gave a melting point of 159 °C.

`CC1(C)SC2C(N)C(=O)N2C1C(=O)O` (stereo unspecified) came in with a melting point of 198 to 200 °C.

`Cc1ccc(C)c2ccccc12` came in with a melting point of 7.6 °C.

The compound `CC(=O)N1CC(c2ccccc2)C=C1c1ccccc1` (stereo unspecified) gave a melting point of 105 °C.

On to `CC1=C(C(=O)OCc2ccccc2)C(c2ccccc2)NC(=O)N1C` (stereo unspecified), for which the melting point stood at 118 °C.

For the compound `Nc1cccc(S(=O)(=O)N2CCCCC2)c1`, the melting point fell in the range of 117 to 118 °C.

`Clc1cc(Cl)c(-c2c(Cl)cccc2Cl)c(Cl)c1` yielded a melting point of 85 °C.

`COC(=O)c1cc2ccccc2cn1`: the melting point lay in the range of 88 to 89 °C.

`COC(=O)c1scc(C)c1N=C=S` had a melting point of 58 to 60 °C.

`O=CC(C=O)c1ccc2ccccc2n1` came in with a melting point of 198 to 202 °C.

Compound `CC(C)CCCC(C)O` (stereo unspecified) yielded a melting point of -105 °C.

As for `CN1C(=O)CN=C(c2ccccc2F)c2cc(Cl)ccc21`, the melting point came to 296 °C.

With `Oc1nc(C2CCCCC2)nn1-c1ccccc1`, the melting point was determined as 197 °C.

`Cc1cccc(N/N=C2/C(=O)N(c3ccccc3)N=C2C(F)(F)F)c1` displayed a melting point of 161 °C.

Compound `ClCc1csc(-c2ccccc2)n1` gave a melting point of 49 to 50 °C.

Turning to `O=C(NN=CC=Cc1ccc([N+](=O)[O-])o1)c1ccc([N+](=O)[O-])s1`, the melting point was 236 °C.

As for `CC(C)(C)OC(=O)NCC1CCN(Cc2ccccc2)CC1`, the melting point lay within 102 to 103 °C.

In turn, `Cc1cccc(NN=C2C(=O)NN=C2C(F)(F)F)c1` came in with a melting point of 155 °C.

`CCOc1ccc(C(=O)C=CC(=O)O)cc1`: the melting point lay in the range of 140 to 144 °C.

In turn, `Cc1ccc(F)cc1N` showed a melting point of 39 °C.

The compound `O=C1C=C(NCc2ccc(Cl)cc2)C(=O)c2ccccc21` gave a melting point of 230 °C.

`OCc1c(F)cccc1Cl` registered a melting point of 43 °C.

For the compound `Cc1c(CC(=O)O)sc2ccc(Cl)cc12`, the melting point lay within 177 to 178 °C.

Compound `ClCc1csc(-c2ccc(Cl)cc2)n1` showed a melting point of 78 to 79 °C.

For `CC(Oc1ccc(Cl)cc1Cl)C(=O)Nc1ccc2nc(SCc3ccccc3)sc2c1` (stereo unspecified), the melting point worked out at 169 °C.

Compound `COc1cc2ccc(=O)oc2c(O)c1O` showed a melting point of 231 °C.

Compound `COc1ccc(F)c(F)c1C#N` displayed a melting point of 81 °C.

Compound `CCCCNCCO` registered a melting point of -2 °C.

`N#C/C(=N\Nc1cccc([N+](=O)[O-])c1)c1nc2ccccc2[nH]1` registered a melting point of 306 to 308 °C.

Compound `O=CC(O)C(O)CO` (stereo unspecified) gave a melting point of 164 °C.

`NCC(=O)NO` came in with a melting point of 156 °C.

`COc1ccc(-c2cc(=O)c3ccccc3o2)cc1OC` had a melting point of 155 °C.

`CC(=O)C1=C(C)NC(=O)NC1c1ccccc1` (stereo unspecified) displayed a melting point of 238 °C.

With `Oc1ccc(C=Cc2cc(O)cc(O)c2)cc1`, the melting point was found to be 254 °C.

With `COc1ccc(N)cc1OC`, the melting point worked out at 88 °C.

With `CC(C)(C)OC(=O)NC(CO)C(=O)O` (stereo unspecified), the melting point came to 90.5 °C.

Turning to `Cn1c(C(=O)O)ccc1S(N)(=O)=O`, the melting point is 210 to 212 °C.

Turning to `O=S(=O)(Nc1ccc(F)cc1C(F)(F)F)C(F)(F)F`, the melting point was found to be 45 °C.

`CCCN(CCC)CCc1cccc2c1CC(=O)N2` registered a melting point of 246 °C.

In the case of `Nc1ccc(N=Nc2ccc(S(N)(=O)=O)cc2)c(N)c1`, the melting point turned out to be 250 °C.

Take `COC(=O)c1cccc([N+](=O)[O-])c1C(=O)OC`: the melting point was determined as 69 °C.

`ClC1=C(Cl)C2(Cl)C3C4C=CC(C4)C3C1(Cl)C2(Cl)Cl` (stereo unspecified) yielded a melting point of 240 °C.

`COc1cc(C(c2ccc(C)s2)c2ccc(C)s2)c([N+](=O)[O-])cc1OC` came in with a melting point of 120 °C.

On to `CCOC(=O)CCC(=O)CC1(O)C2(Cl)C3(Cl)C4(Cl)C(Cl)(Cl)C5(Cl)C3(Cl)C1(Cl)C5(Cl)C42Cl` (stereo unspecified), for which the melting point came to 91 °C.

As for `Cc1cccc(C(C)(C)C)c1O`, the melting point came out at 31 °C.

`Cc1noc(-c2ccc(Br)cc2)n1` yielded a melting point of 97 to 98 °C.

`NNC(N)=S`: the melting point amounted to 183 °C.

As to `NC(=NO)c1cc(F)c(F)cc1F`, the melting point lay within 91 to 92 °C.

On to `C/C(=N\CCc1ccccn1)c1c(O)c2ccccc2n(-c2ccccc2)c1=O`, for which the melting point lay within 219 to 220 °C.

The compound `Cn1c(=O)c(C2=NNC(=O)C2=Cc2c[nH]c3ccccc23)c(O)c2ccccc21` came in with a melting point of 297 °C.

The compound `CC1C=Cn2c(cc3ccccc3c2=O)C1` (stereo unspecified) gave a melting point of 89 °C.

The compound `Cc1ncoc1C(=O)O` displayed a melting point of 239 to 240 °C.

In the case of `O=C(O)C(O)c1ccc(C(F)(F)F)cc1` (stereo unspecified), the melting point was in the range of 130 to 134 °C.

For the compound `NNc1ncnc2c1cnn2-c1ccccc1`, the melting point lay in the range of 190 to 191 °C.

`COC(=O)C(C)Cl` (stereo unspecified) showed a melting point of -10 °C.

With `N#CC(=NOCC1OCCO1)c1ccccc1`, the melting point worked out at 77.7 °C.

The compound `O=C(NC(=O)C(F)(F)F)C(F)(F)F` yielded a melting point of 84 °C.

Consider `O=C(O)c1cc(-c2ccco2)[nH]n1`, for which the melting point came out at 220 °C.

The compound `N#CCCNCCC#N` came in with a melting point of -6 °C.

Turning to `Clc1ccc(OCCBr)cc1`, the melting point is 38 to 39 °C.

Compound `CCOC(=O)c1c(N=C=S)sc2c1CCCC2` had a melting point of 45 to 46 °C.

The compound `C(=Cc1ccccc1)CN1CCNCC1` came in with a melting point of 39 to 44 °C.

For the compound `O=C(O)C1OC(C(=O)O)C(C(=O)O)C1C(=O)O` (stereo unspecified), the melting point fell in the range of 205 to 210 °C.

The compound `O=C(NC(CSSCC(NC(=O)OCc1ccccc1)C(=O)O)C(=O)O)OCc1ccccc1` (stereo unspecified) yielded a melting point of 84 °C.

`Nc1ccc2cc[nH]c2c1` displayed a melting point of 73 °C.

In turn, `Brc1ccc2[nH]ccc2c1` had a melting point of 91 °C.

`Nc1cc(-c2ccc(Cl)cc2)nc(N)n1` showed a melting point of 158 to 161 °C.

Regarding `COc1cc(C(=O)Cc2ccccc2)c([N+](=O)[O-])cc1OC`, the melting point was 152 °C.

`Cc1cccc(N(C)C(=S)Oc2ccc3c(c2)C2CCC3C2)c1` (stereo unspecified): the melting point is 93 °C.

Take `COC(=O)C1=C(C)NC(CBr)=C(C(=O)OCCCl)C1c1cccc([N+](=O)[O-])c1` (stereo unspecified): the melting point was 205 to 206 °C.

In the case of `CC(/C=C(\C)c1ccc(-c2ccccc2)cc1)=NNc1ccc([N+](=O)[O-])cc1[N+](=O)[O-]`, the melting point was in the range of 200 to 201 °C.

For the compound `CON(C)C(=O)Nc1ccc(Cl)cc1`, the melting point amounted to 81.5 °C.

Take `Cc1ccc(-c2cc(NN=c3c(C)nc4ccccc4[nH]c3=O)[nH]n2)cc1`: the melting point stood at 168 °C.

`COc1ccc(OC)c(C=C[N+](=O)[O-])c1`: the melting point lay in the range of 114 to 119 °C.

As to `C=COCCCCCCCCCCCCCCCCCC`, the melting point is 30 °C.
